Data: patent publication US8263598B2, “Substituted sulfonamide compounds” (Gruenenthal GmbH, priority 2008, dated 2012)

Experiments:
[1] = biological target: T1, human B1R receptor (hB1R) (Homo sapiens, UniProt P46663); assay: FLIPR Ca2+ assay on human bradykinin 1 receptor (CHO K1 hB1R cells); type: cell-based; settings: test substance 10 μM; CHO K1 cells with human B1R gene; agonist Lys-Des-Arg9-bradykinin 0.5 nM; compared to maximum achievable inhibition
T1 construct: host or cells: CHO K1 cells
T1 sequence (P46663 1-353): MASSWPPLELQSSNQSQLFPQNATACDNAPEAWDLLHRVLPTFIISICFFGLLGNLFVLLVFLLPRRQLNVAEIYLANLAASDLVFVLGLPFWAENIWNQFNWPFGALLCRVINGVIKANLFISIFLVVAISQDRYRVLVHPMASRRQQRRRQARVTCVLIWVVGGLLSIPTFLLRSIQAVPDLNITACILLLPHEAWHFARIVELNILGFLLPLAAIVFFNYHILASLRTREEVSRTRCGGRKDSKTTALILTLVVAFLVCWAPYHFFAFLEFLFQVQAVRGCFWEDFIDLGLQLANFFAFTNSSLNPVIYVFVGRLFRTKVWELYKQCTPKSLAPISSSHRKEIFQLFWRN
In short: (§1)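 Values are percent inhibition of agonist-evoked Ca²⁺ influx, measured by Fluo-4 fluorescence peak in FLIPR relative to maximum achievable inhibition. Compound at 10 μM was preincubated 10 min on B1R-transfected CHO K1 cells before challenge with 0.5 nM Lys-Des-Arg9-bradykinin (human) or 100 nM Des-Arg9-bradykinin (rat).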

[2] = biological target: T2, B1R receptor of rats (rB1R) (Rattus norvegicus, UniProt P97583); assay: FLIPR Ca2+ assay on rat bradykinin 1 receptor (CHO K1 rB1R cells); type: cell-based; settings: test substance 10 μM; CHO K1 cells with B1R gene of rats; agonist Des-Arg9-bradykinin 100 nM; compared to maximum achievable inhibition
T2 construct: host or cells: CHO K1 cells
T2 sequence (P97583 1-337): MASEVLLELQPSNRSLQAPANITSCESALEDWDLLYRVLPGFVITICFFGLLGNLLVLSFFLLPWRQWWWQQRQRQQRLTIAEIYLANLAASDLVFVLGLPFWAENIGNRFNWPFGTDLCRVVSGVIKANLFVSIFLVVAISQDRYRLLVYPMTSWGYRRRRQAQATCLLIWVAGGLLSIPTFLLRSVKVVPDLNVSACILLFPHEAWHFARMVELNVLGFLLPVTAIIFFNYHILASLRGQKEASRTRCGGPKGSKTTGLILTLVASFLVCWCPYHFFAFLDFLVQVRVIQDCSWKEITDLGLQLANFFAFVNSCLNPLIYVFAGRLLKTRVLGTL
In short: as §1

| Compound | inhibition at 10 µM [1] [%] | inhibition at 10 µM [2] [%] |
| --- | --- | --- |
| COc1cc(C)c(S(=O)(=O)N(CCOCC(=O)N2CCn3c(CN(C)C)ccc3C2CCc2ccccc2)Cc2ccccc2)c(C)c1C (stereo not drawn) [Example 119, N-benzyl-N-(2-(2-(6-((dimethylamino)methyl)-1-phenethyl-3,4-dihydropyrrolo-[1,2-a]pyrazin-2(1H)-yl)-2-oxoethoxy)ethyl)-4-methoxy-2,3,6-trimethylbenzene-sulfonamide] | 52 | 54 |
| COc1cc(C)c(S(=O)(=O)N(C)CCOCC(=O)N2CCn3cccc3C2c2ccc(C)c(C)c2)c(C)c1C (stereo not drawn) [Example 86, N-(2-(2-(1-(3,4-dimethylphenyl)-3,4-dihydropyrrolo[1,2-a]pyrazin-2(1H)-yl)-2-oxoethoxy)ethyl)-4-methoxy-N,2,3,6-tetramethylbenzenesulfonamide] | 91 | 71 |
| Cc1cc(C)c(S(=O)(=O)N(C)CCOCC(=O)N2CCn3cccc3C2c2ccc(C)c(C)c2)c(C)c1 (stereo not drawn) [Example 72, N-(2-(2-(1-(3,4-dimethylphenyl)-3,4-dihydropyrrolo[1,2-a]pyrazin-2(1H)-yl)-2-oxoethoxy)ethyl)-N,2,4,6-tetramethylbenzenesulfonamide] | 97 | 71 |
| COc1c(C)cc(S(=O)(=O)N(C)CCOCC(=O)N2CCn3cccc3C2c2cccc(C(F)(F)F)c2)c(C)c1C (stereo not drawn) [Example 37, 4-methoxy-N,2,3,5-tetramethyl-N-(2-(2-oxo-2-(1-(3-(trifluoromethyl)phenyl)-3,4-dihydropyrrolo[1,2-a]pyrazin-2(1H)-yl)ethoxy)ethyl)benzenesulfonamide] | 38 | 72 |
| COc1cc(C)c(S(=O)(=O)N(C)CCOCC(=O)N2CCn3cccc3C2c2ccc(C(F)(F)F)cc2F)c(C)c1 (stereo not drawn) [Example 63, N-(2-(2-(1-(2-fluoro-4-(trifluoromethyl)phenyl)-3,4-dihydropyrrolo[1,2-a]pyrazin-2(1H)-yl)-2-oxoethoxy)ethyl)-4-methoxy-N,2,6-trimethylbenzene-sulfonamide] | 102 | 100 |
| COc1cc(C)c(S(=O)(=O)N(CCOCC(=O)N2CCn3c(CN(C)C)ccc3C2Cc2ccccc2)CC(C)C)c(C)c1C (stereo not drawn) [Example 95, N-(2-(2-(1-benzyl-6-((dimethylamino)methyl)-3,4-dihydropyrrolo[1,2-a]pyrazin-2(1H)-yl)-2-oxoethoxy)ethyl)-N-isobutyl-4-methoxy-2,3,6-trimethylbenzene-sulfonamide] | 101 | 101 |
| CN1CCN(CCCc2ccc3n2CCN(C(=O)CC(NS(=O)(=O)c2ccc4ccccc4c2)c2ccccc2)C3)CC1 (stereo not drawn) [Example 13, N-(3-(6-(3-(4-methylpiperazin-1-yl)propyl)-3,4-dihydropyrrolo[1,2-a]pyrazin-2(1H)-yl)-3-oxo-1-phenylpropyl)naphthalene-2-sulfonamide] | 44 | 100 |
| COc1cc(C)c(S(=O)(=O)N(C)CCOCC(=O)N2CCn3cccc3C2c2ccc(Cl)nc2)c(C)c1C (stereo not drawn) [Example 82, N-(2-(2-(1-(6-chloropyridin-3-yl)-3,4-dihydropyrrolo[1,2-a]pyrazin-2(1H)-yl)-2-oxoethoxy)ethyl)-4-methoxy-N,2,3,6-tetramethylbenzenesulfonamide] | 101 | 99 |
| COc1c(C)cc(S(=O)(=O)N(C)CCOCC(=O)N2CCn3c(CN4CCCCC4)ccc3C2c2ccccc2)c(C)c1C (stereo not drawn) [Example 107, 4-methoxy-N,2,3,5-tetramethyl-N-(2-(2-oxo-2-(1-phenyl-6-(piperidin-1-ylmethyl)-3,4-dihydropyrrolo[1,2-a]pyrazin-2(1H)-yl)ethoxy)ethyl)benzene-sulfonamide] | 98 | 102 |
| COc1cccc(C2c3cccn3CCN2C(=O)COCCN(C)S(=O)(=O)c2c(C)cc(C)cc2C)c1 (stereo not drawn) [Example 76, N-(2-(2-(1-(3-methoxyphenyl)-3,4-dihydropyrrolo[1,2-a]pyrazin-2(1H)-yl)-2-oxoethoxy)ethyl)-N,2,4,6-tetramethylbenzenesulfonamide] | 101 | 97 |
| COc1cc(C)c(S(=O)(=O)N(CCOCC(=O)N2CCn3cccc3C2c2ccccc2)Cc2ccccc2)c(C)c1 (stereo not drawn) [Example 48, N-benzyl-4-methoxy-2,6-dimethyl-N-(2-(2-oxo-2-(1-phenyl-3,4-dihydropyrrolo[1,2-a]pyrazin-2(1H)-yl)ethoxy)ethyl)benzenesulfonamide] | 54 | 98 |
| Cc1cc(C)c(S(=O)(=O)N(C)CCOCC(=O)N2CCn3cccc3C2c2ccc(F)c(F)c2)c(C)c1 (stereo not drawn) [Example 71, N-(2-(2-(1-(3,4-difluorophenyl)-3,4-dihydropyrrolo[1,2-a]pyrazin-2(1H)-yl)-2-oxoethoxy)ethyl)-N,2,4,6-tetramethylbenzenesulfonamide] | 95 | 95 |

Results, then the compound that gave them:

| inhibition at 10 µM [1] [%] | inhibition at 10 µM [2] [%] | Compound |
| --- | --- | --- |
| 100 | 99 | COc1cc(C)c(S(=O)(=O)N(C)CCOCC(=O)N2CCn3c(ccc3-c3cccnc3)C2)c(C)c1 [Example 166, 4-Methoxy-N,2,6-trimethyl-N-(2-(2-oxo-2-(6-(pyridin-3-yl)-3,4-dihydropyrrolo[1,2-a]pyrazin-2(1H)-yl)ethoxy)ethyl)benzenesulfonamide] |
| 100 | 99 | Cc1cc(C)c(S(=O)(=O)N(C)CCOCC(=O)N2CCn3c(CN(C)C)ccc3C2Cc2ccccc2)c(C)c1 (stereo not drawn) [Example 143, N-(2-(2-(1-benzyl-6-((dimethylamino)methyl)-3,4-dihydropyrrolo[1,2-a]pyrazin-2(1H)-yl)-2-oxoethoxy)ethyl)-N,2,4,6-tetramethylbenzenesulfonamide] |
| 23 | 87 | CCCC1c2cccn2CCN1C(=O)COCCN(Cc1ccccc1)S(=O)(=O)c1c(C)cc(OC)cc1C (stereo not drawn) [Example 154, N-benzyl-4-methoxy-2,6-dimethyl-N-(2-(2-oxo-2-(1-propyl-3,4-dihydropyrrolo[1,2-a]pyrazin-2(1H)-yl)ethoxy)ethyl)benzenesulfonamide] |
| 101 | 103 | COc1cc(C)c(S(=O)(=O)N(CCOCC(=O)N2CCn3c(CN4CCCCC4)ccc3C2c2ccccc2)Cc2ccccc2)c(C)c1 (stereo not drawn) [Example 128, N-benzyl-4-methoxy-2,6-dimethyl-N-(2-(2-oxo-2-(1-phenyl-6-(piperidin-1-ylmethyl)-3,4-dihydropyrrolo[1,2-a]pyrazin-2(1H)-yl)ethoxy)ethyl)benzene-sulfonamide] |
| 100 | 94 | COc1cc(C)c(S(=O)(=O)N(C)CCOCC(=O)N2CCn3c(Cc4cccnc4)ccc3C2)c(C)c1 [Example 174, 4-Methoxy-N,2,6-trimethyl-N-(2-(2-oxo-2-(6-(pyridin-3-ylmethyl)-3,4-dihydropyrrolo[1,2-a]pyrazin-2(1H)-yl)ethoxy)ethyl)benzenesulfonamide] |
| 57 | 98 | CCC1c2cccn2CCN1C(=O)C[C@@H](NS(=O)(=O)c1ccc2ccccc2c1)c1ccccc1 (stereo partly drawn) [Example 162, N-((1R)-3-(1-Ethyl-3,4-dihydropyrrolo[1,2-a]pyrazin-2(1H)-yl)-3-oxo-1-phenylpropyl)naphthalene-2-sulfonamide] |
